According to publication PMC10788925 (Journal of Medicinal Chemistry, 2023):
Where “and” joins values, the source holds several entries; their conditions need not be identical. Identical values can stand only once. Like-named read-outs stand apart in the source and are kept apart here.

How the values were obtained:
[1] = test system: HEV-3 replicon p6-Gluc; assay: microbe, parasite or virus in culture; type: cell-based, Hepatitis E virus
[2] = in vitro; conditions: human

Molecule	EC50 ([1]; Hepatitis E virus, HepG2, 24 h)	EC90 ([1]; Hepatitis E virus, HepG2, 24 h)	EC90 ([1]; Hepatitis E virus, HepG2, 24 h, read-out: HEV, EC90 (24 h, nM))	EC50 ([1]; Hepatitis E virus, HepG2, 48 h)	EC90 ([1]; Hepatitis E virus, HepG2, 48 h)	EC90 ([1]; Hepatitis E virus, HepG2, 48 h, read-out: HEV, EC90 (48 h, nM)2)	CC50 [2]	CC50 at 48 h [2]	EC50 ([1]; read-out: EC50)	EC90 ([1]; read-out: EC90)	CC50 at 24 h [2]
COC(=O)[C@H]1[C@@H](O)[C@@]2(O)c3c(OC)cc(OC)cc3O[C@@]2(c2ccc(F)cc2)[C@@H]1c1ccccc1 (racemic) [11ba, (±)-Methyl (1R,2R,3S,3aR,8bS)-3a-(4-fluorophenyl)-1,8b-dihydroxy-6,8-dimethoxy-3-phenyl-2,3,3a,8b-tetrahydro-1H-cyclopenta[b]benzofuran-2-carboxylate]	338 nM	> 1000 nM	> 1000 nM	334 nM	> 1000 nM	> 1000 nM	> 1000 nM	421 nM	–	–	–
(±)-(1R,2R,3S,3aR,8bS)-3a-(4-chlorophenyl)-1,8b-dihydroxy-N,6,8-trimethoxy-3-phenyl-2,3,3a,8b-tetrahydro-1H-cyclopenta[b]benzofuran-2-carboxamide [14ab]	–	–	–	–	–	–	–	–	2.8 nM and 2.3 nM	18.2 nM and 23.8 nM	–
(±)-(1R,2R,3S,3aR,8bS)-8-Bromo-6-chloro-1,8b-dihydroxy-N-methoxy-3a-(4-methoxyphenyl)-3-phenyl-2,3,3a,8b-tetrahydro-1H-cyclopenta[b]benzofuran-2-carboxamide [14g]	–	–	–	–	–	–	–	–	4.1 nM and 5.5 nM	–	–
COc1cc(OC)c2c(c1)O[C@@]1(c3ccc(Cl)cc3)[C@H](c3ccccc3)[C@@H](C(=O)N(C)C)[C@@H](O)[C@@]21O (racemic) [14aa, (±)-(1R,2R,3S,3aR,8bS)-3a-(4-chlorophenyl)-1,8b-dihydroxy-6,8-dimethoxy-N,N-dimethyl-3-phenyl-2,3,3a,8b-tetrahydro-1H-cyclopenta[b]benzofuran-2-carboxamide]	7.2 nM	174 nM	–	8.9 nM	102 nM	–	–	22.7 nM	–	–	390 nM
CONC(=O)[C@H]1[C@@H](O)[C@@]2(O)c3c(F)cc(OC)cc3O[C@@]2(c2ccc(OC)cc2)[C@@H]1c1ccccc1 (racemic) [14hb, (±)-(1R,2R,3S,3aR,8bS)-8-Fluoro-1,8b-dihydroxy-N,6-dimethoxy-3a-(4-methoxyphenyl)-3-phenyl-2,3,3a,8b-tetrahydro-1H-cyclopenta[b]benzofuran-2-carboxamide]	17.2 nM	91.2 nM	–	10.9 nM	69.8 nM	–	–	27.5 nM	–	–	491 nM
CONC(=O)[C@H]1[C@@H](O)[C@@]2(O)c3c(OC)cc(Br)cc3O[C@@]2(c2ccc(OC)cc2)[C@@H]1c1ccccc1 (racemic) [14m, (±)-(1R,2R,3S,3aR,8bS)-6-Bromo-1,8b-dihydroxy-N,8-dimethoxy-3a-(4-methoxyphenyl)-3-phenyl-2,3,3a,8b-tetrahydro-1H-cyclopenta[b]benzofuran-2-carboxamide]	1 nM	328 nM	–	0.2 nM	1.6 nM	–	–	1 nM	–	–	748 nM
COC(=O)[C@H]1[C@@H](O)[C@@]2(O)c3c(OC)cc(O[C@@H]4O[C@@H]([C@H](O)CO)CO[C@H]4OC)cc3O[C@@]2(c2ccc(OC)cc2)[C@@H]1c1ccccc1 [(−)-silvestrol (2a), silvestrol, reference compound]	4.2 nM	40.5 nM	–	2.2 nM	28.1 nM	–	–	13.4 nM	–	–	180 nM
COC(=O)[C@H]1[C@@H](O)[C@@]2(O)c3c(OC)cc(OC)cc3O[C@@]2(c2ccc(Br)cc2)[C@@H]1c1ccccc1 (racemic) [11bb, (±)-Methyl (1R,2R,3S,3aR,8bS)-3a-(4-bromophenyl)-1,8b-dihydroxy-6,8-dimethoxy-3-phenyl-2,3,3a,8b-tetrahydro-1H-cyclopenta[b]benzofuran-2-carboxylate]	7.3 nM	158 nM	–	9.4 nM	91.3 nM	–	–	27.1 nM	–	–	420 nM
COc1ccc([C@@]23Oc4cc(OC)cc(OC)c4[C@]2(O)[C@H](O)[C@H](C(=O)N(C)C)[C@H]3c2ccccc2)cc1 (racemic) [(±)-rocaglamide (rac-1b), (±)-(1R,2R,3S,3aR,8bS)-1,8b-Dihydroxy-6,8-dimethoxy-3a-(4-methoxyphenyl)-N,N-dimethyl-3-phenyl-2,3,3a,8b-tetrahydro-1H-cyclopenta[b]benzofuran-2-carboxamide, reference compound]	27.8 nM	213 nM	–	21 nM	201 nM	–	–	44.5 nM	–	–	550 nM
COC(=O)[C@H]1[C@@H](O)[C@@]2(O)c3c(OC)cc(Cl)cc3O[C@@]2(c2ccc(OC)cc2)[C@@H]1c1ccccc1 (racemic) [9k, (±)-Methyl (1R,2R,3S,3aR,8bS)-6-chloro-1,8b-dihydroxy-8-methoxy-3a-(4-methoxyphenyl)-3-phenyl-2,3,3a,8b-tetrahydro-1H-cyclopenta[b]benzofuran-2-carboxylate]	5.4 nM	45.1 nM	–	2.5 nM	45.5 nM	–	–	19.9 nM	–	–	443 nM
COC(=O)[C@H]1[C@@H](O)[C@@]2(O)c3c(Cl)cc(Cl)cc3O[C@@]2(c2ccc(Br)cc2)[C@@H]1c1ccccc1 (racemic) [9db, (±)-Methyl (1R,2R,3S,3aR,8bS)-3a-(4-bromophenyl)-6,8-dichloro-1,8b-dihydroxy-3-phenyl-2,3,3a,8b-tetrahydro-1H-cyclopenta[b]benzofuran-2-carboxylate]	29.6 nM	128 nM	–	14.7 nM	124 nM	–	–	48 nM	–	–	389 nM
COCOc1cc(F)c2c(c1)O[C@@]1(c3ccc(OC)cc3)[C@H](c3ccccc3)[C@@H](C(=O)OC)[C@@H](O)[C@@]21O (racemic) [9na, (±)-Methyl (1R,2R,3S,3aR,8bS)-8-fluoro-1,8b-dihydroxy-6-(methoxymethoxy)-3a-(4-methoxyphenyl)-3-phenyl-2,3,3a,8b-tetrahydro-1H-cyclopenta[b]benzofuran-2-carboxylate]	202 nM	> 1000 nM	–	146 nM	873 nM	–	–	236 nM	–	–	912 nM
COC(=O)[C@H]1[C@@H](O)[C@@]2(O)c3c(F)cc(OC)cc3O[C@@]2(c2ccc(OC)cc2)[C@@H]1c1ccccc1 (racemic) [9h, (±)-Methyl (1R,2R,3S,3aR,8bS)-8-fluoro-1,8b-dihydroxy-6-methoxy-3a-(4-methoxyphenyl)-3-phenyl-2,3,3a,8b-tetrahydro-1H-cyclopenta[b]benzofuran-2-carboxylate]	61 nM	> 1000 nM	–	64.3 nM	634 nM	–	> 1000 nM	163 nM	–	–	–
COc1cc(OC)c2c(c1)O[C@@]1(c3ccc(F)cc3)[C@H](c3ccccc3)[C@@H](C(=O)N(C)C)[C@@H](O)[C@@]21O (racemic) [14baa, (±)-(1R,2R,3S,3aR,8bS)-3a-(4-fluorophenyl)-1,8b-dihydroxy-6,8-dimethoxy-N,N-dimethyl-3-phenyl-2,3,3a,8b-tetrahydro-1H-cyclopenta[b]benzofuran-2-carboxamide]	229 nM	> 1000 nM	–	208 nM	829 nM	–	–	297 nM	–	–	966 nM
COC(=O)[C@H]1[C@@H](O)[C@@]2(O)c3c(Br)cc(Br)cc3O[C@@]2(c2ccc(OC)cc2)[C@@H]1c1ccccc1 (racemic) [9e, (±)-Methyl (1R,2R,3S,3aR,8bS)-6,8-dibromo-1,8b-dihydroxy-3a-(4-methoxyphenyl)-3-phenyl-2,3,3a,8b-tetrahydro-1H-cyclopenta[b]benzofuran-2-carboxylate]	36.1 nM	362 nM	–	33.2 nM	282 nM	–	–	90.2 nM	–	–	766 nM
COC(=O)[C@H]1[C@@H](O)[C@@]2(O)c3c(OC)cc(OC)cc3O[C@@]2(c2ccc(Cl)cc2)[C@@H]1c1ccccc1 (racemic) [9a, (±)-Methyl (1R,2R,3S,3aR,8bS)-3a-(4-chlorophenyl)-1,8b-dihydroxy-6,8-dimethoxy-3-phenyl-2,3,3a,8b-tetrahydro-1H-cyclopenta[b]benzofuran-2-carboxylate]	19.4 nM	140 nM	–	16.8 nM	105 nM	–	–	38.8 nM	–	–	513 nM
COC(=O)[C@H]1[C@@H](O)[C@@]2(O)c3c(Cl)cc(Br)cc3O[C@@]2(c2ccc(OC)cc2)[C@@H]1c1ccccc1 (racemic) [9f, (±)-Methyl (1R,2R,3S,3aR,8bS)-6-bromo-8-chloro-1,8b-dihydroxy-3a-(4-methoxyphenyl)-3-phenyl-2,3,3a,8b-tetrahydro-1H-cyclopenta[b]benzofuran-2-carboxylate]	9.9 nM	583 nM	–	14.9 nM	454 nM	–	–	61 nM	–	–	663 nM
(±)-(1R,2R,3S,3aR,8bS)-1,8b-Dihydroxy-N,6,8-trimethoxy-3a-(4-methoxyphenyl)-3-phenyl-2,3,3a,8b-tetrahydro-1H-cyclopenta[b]benzofuran-2-carboxamide [(±)-CR-31-B (rac-1c), reference compound]	–	–	–	–	–	–	–	–	6.1 nM and 3.7 nM	27.3 nM and 29 nM	–
COCOc1cc(F)c2c(c1)O[C@@]1(c3ccc(Br)cc3)[C@H](c3ccccc3)[C@@H](C(=O)OC)[C@@H](O)[C@@]21O (racemic) [9nb, (±)-Methyl (1R,2R,3S,3aR,8bS)-3a-(4-bromophenyl)-8-fluoro-1,8b-dihydroxy-6-(methoxymethoxy)-3-phenyl-2,3,3a,8b-tetrahydro-1H-cyclopenta[b]benzofuran-2-carboxylate]	86.9 nM	345 nM	–	63.2 nM	298 nM	–	–	113 nM	–	–	727 nM
(±)-(1R,2R,3S,3aR,8bS)-3a-(4-fluorophenyl)-1,8b-dihydroxy-N,6,8-trimethoxy-3-phenyl-2,3,3a,8b-tetrahydro-1H-cyclopenta[b]benzofuran-2-carboxamide [14bab]	–	–	–	–	–	–	–	–	53.7 nM and 52.9 nM	338 nM and 670 nM	–
